# Measurements taken from patent US20240108641A1, “COMPOSITIONS FOR ORAL ADMINISTRATION OF ZOLEDRONIC ACID OR RELATED COMPOUNDS FOR TREATING DISEASE” (ANTECIP BIOVENTURES II LLC, priority 2012, published 2024).
# How the values were obtained:
# [1] = test system: knee bone marrow lesions (BML); assay: clinical study in knee osteoarthritis with bone marrow lesions, BML size on MRI; type: in vivo, human; settings: 5 mg intravenous; for average BML area decreased as compared to placebo: 6 months; for Change in BML Size / Change in BML Size, Difference from Placebo: baseline to 6 months
# Text: Some embodiments related to joint pain, bone marrow lesions, and osteoarthritis were conceived as a result of analyzing data from a clinical study. Some of the results of this study were reported by Laslett et al. in Ann Rheum Dis 2012; 71:1322-1328. Some of the description and data reported below was not published prior to filing the present application. Fifty-two (52) patients with clinical knee osteoarthritis and knee bone marrow lesions (BML) were randomized to receive either intravenous zoledronic acid (5 mg) or placebo in a double blind fashion. All patients had to have at least one bone marrow lesion (BML) in the affected knee on magnetic resonance imaging (MRI). All patients had x-ray of the knee for determination of joint space narrowing (JSN), which was graded according to the Osteoarthritis Research Society International (OARSI) atlas. Patients had either no joint space narrowing (OARSI Grade 0), or greater degrees of joint space narrowing (OARSI Grade 1 and Grade 2). Twenty six patients were treated with zoledronic acid (8, 6, and 12 with OARSI Grades 0, 1, and 2, respectively). Twenty six patients received placebo (8, 8, and 10 with OARSI Grades 0, 1 and 2, respectively).
# BMLs were evaluated using proton density-weighted fat saturation MR images. BMLs were scored using Osiris software (University of Geneva, Geneva, Switzerland). The maximum size was measured in mm^2 using software cursors applied to the greatest area of each lesion. The lesion with the highest score was used if more than one was present at the same site. Each patient was given a BML score (mm^2) at each of the four sites (medial tibial, medial femoral, lateral tibial, and lateral femoral sites) and these were summed to create a total BML score (mm^2). The change in the total area of BMLs from baseline to 6 months was calculated.
# [2] = test system: chronic low back pain (LBP) and Modic changes; assay: randomized placebo-controlled trial in chronic low back pain with Modic changes, low back symptoms and lumbar flexibility; type: in vivo, human; settings: for Fingers-to-floor, Unadjusted analyses Difference (95% CI) / Intensity of LBP, Unadjusted analyses Difference (95% CI) / Intensity of leg pain, Unadjusted analyses Difference (95% CI) / Oswestry disability index, Unadjusted analyses Difference (95% CI) / Sidebending to left, Unadjusted analyses Difference (95% CI) / Sidebending to right, Unadjusted analyses Difference (95% CI) / Fingers-to-floor, Adjusted analyses Difference (95% CI) / Intensity of LBP, Adjusted analyses Difference (95% CI) / Intensity of leg pain, Adjusted analyses Difference (95% CI) / Oswestry disability index, Adjusted analyses Difference (95% CI) / Sidebending to left, Adjusted analyses Difference (95% CI) / Sidebending to right, Adjusted analyses Difference (95% CI): ZA versus placebo; for Fingers-to-floor, Adjusted analyses Difference (95% CI) / Intensity of LBP, Adjusted analyses Difference (95% CI) / Intensity of leg pain, Adjusted analyses Difference (95% CI) / Oswestry disability index, Adjusted analyses Difference (95% CI) / Sidebending to left, Adjusted analyses Difference (95% CI) / Sidebending to right, Adjusted analyses Difference (95% CI): adjusted for baseline; for Intensity of LBP, Mean (SD) original values: 10 cm VAS
# Experimental: A study was performed to evaluate the efficacy of a single intravenous infusion of 5 mg ZA in comparison with intravenous placebo infusion among patients with chronic low back pain (LBP) and Modic changes on MRI. This study was a double-blinded, randomized, placebo-controlled clinical trial in patients with low back pain (LBP). Patients were included in the study if they had low back symptoms for at least three months, an LBP of at least six (6) on a 10-cm Visual Analog Scale (VAS) or an Oswestry Disability Index (ODI) of at least 30%, and an M1, mixed M1/2 or M2 type change on MRI performed within six months at most prior to enrolment.
# Patients were excluded from the study if they had renal impairment with reduced creatinine clearance defined as an estimated glomerular filtration rate (eGFR) below 40 ml/min, hypocalcemia, known hypersensitivity to zoledronic acid or other bisphosphonates or ingredients of the infusion product, the presence of red flags, nerve root entrapment or willingness for early retirement. Premenopausal women of childbearing potential were also excluded. Blood samples were taken prior to the infusion to assess the serum concentration of calcium and creatinine. The clinical examination included medical history and clinical assessment of lumbar flexibility, tendon signs, and motor and sensory testing.
# After confirmation of eligibility patients were randomized to receive a single intravenous infusion of 5 mg zoledronic acid (n=20) or 100 ml saline as placebo (n=20) over a 15-minute period. Information on use of the concomitant medication and hospital admissions were recorded. Blood samples were taken for the assessment of safety, inflammatory mediators and markers of bone turnover at baseline, one month and one year.
# Clinical assessments were performed 14 days before enrolment (screening visit), and follow-up visits at one month and one year after the infusion. The primary outcome was the change in the intensity of LBP on VAS. Secondary outcomes included leg pain intensity, ODI, health-related quality of life assessed with RAND-36, patient-reported sick leaves and lumbar flexibility. These outcome measures were assessed at baseline and at each follow-up. Lumbar flexibility was evaluated using the fingers-to-floor and trunk side bending measures (in cm). The percentage of patients undergoing a 20% relative improvement, the proportion of patients reaching a VAS score of 40 or less in the primary outcome, and patient acceptable symptom state (PASS) were also assessed. Pain medication use was inquired about during the follow-up visits.
# [3] = 12 mos., single 5 mg IV infusion
# [4] = one month, single 5 mg IV infusion
smiles,measurement,setting,value
O=P(O)(O)C(O)(Cn1ccnc1)P(=O)(O)O [zoledronic acid],average BML area decreased as compared to placebo,[1]; OARSI Grade 0,approximately 190 mm^2
same,average BML area decreased as compared to placebo,[1]; OARSI Grades 1-2,approximately 33 mm^2
same,Change in BML Size,[1]; OARSI Grade 0,−244 mm^2
same,"Change in BML Size, Difference from Placebo",[1]; OARSI Grade 0,−190 mm^2
same,Change in BML Size,[1]; OARSI Grades 1-2,−117 mm^2
same,"Change in BML Size, Difference from Placebo",[1]; OARSI Grades 1-2,−33 mm^2
same,"Fingers-to-floor, Unadjusted analyses Difference (95% CI)",[2]; 1 mo.,5.0 (−4.8 to 15) cm
same,"Intensity of LBP, Unadjusted analyses Difference (95% CI)",[2]; 1 mo.,1.3 (−0.2 to 2.8)
same,"Intensity of leg pain, Unadjusted analyses Difference (95% CI)",[2]; 1 mo.,0.8 (−0.9 to 2.4)
same,"Oswestry disability index, Unadjusted analyses Difference (95% CI)",[2]; 1 mo.,4.3 (−2.5 to 11) %
same,"Sidebending to left, Unadjusted analyses Difference (95% CI)",[2]; 1 mo.,−1.5 (−3.2 to 0.1) cm
same,"Sidebending to right, Unadjusted analyses Difference (95% CI)",[2]; 1 mo.,−2.0 (−4.3 to 0.4) cm
same,"Fingers-to-floor, Adjusted analyses Difference (95% CI)",[2]; 1 mo.,3.6 (−5.0 to 12) cm
same,"Intensity of LBP, Adjusted analyses Difference (95% CI)",[2]; 1 mo.,1.4
same,"Intensity of leg pain, Adjusted analyses Difference (95% CI)",[2]; 1 mo.,0.8 (−0.6 to 2.2)
same,"Oswestry disability index, Adjusted analyses Difference (95% CI)",[2]; 1 mo.,6.0%
same,"Sidebending to left, Adjusted analyses Difference (95% CI)",[2]; 1 mo.,−1.7 (−3.4 to 0.0) cm
same,"Sidebending to right, Adjusted analyses Difference (95% CI)",[2]; 1 mo.,−2.0 (−4.4 to 0.3) cm
same,"Intensity of LBP, Adjusted analyses Difference (95% CI)","[2]; 1 mo., listed as ZA",1.4 (0.01 to 2.9)
same,"Oswestry disability index, Adjusted analyses Difference (95% CI)","[2]; 1 mo., listed as ZA",6.0 (−0.6 to 13) %
same,"Fingers-to-floor, Mean (SD) change","[2]; 1 mo., single 5 mg IV infusion",−5.1 (20) cm
same,"Fingers-to-floor, Mean (SD) original values","[2]; 1 mo., single 5 mg IV infusion",17 (17) cm
same,"Intensity of LBP, Mean (SD) change","[2]; 1 mo., single 5 mg IV infusion",−2.2 (2.7)
same,"Intensity of leg pain, Mean (SD) change","[2]; 1 mo., single 5 mg IV infusion",−0.6 (2.4)
same,"Intensity of leg pain, Mean (SD) original values","[2]; 1 mo., single 5 mg IV infusion",2.0 (2.3)
same,"Oswestry disability index, Mean (SD) change","[2]; 1 mo., single 5 mg IV infusion",−5.9 (11) %
same,"Oswestry disability index, Mean (SD) original values","[2]; 1 mo., single 5 mg IV infusion",24 (10) %
same,"Sidebending to left, Mean (SD) change","[2]; 1 mo., single 5 mg IV infusion",1.1 (3.0) cm
same,"Sidebending to left, Mean (SD) original values","[2]; 1 mo., single 5 mg IV infusion",16.1 (5.3) cm
same,"Sidebending to right, Mean (SD) change","[2]; 1 mo., single 5 mg IV infusion",1.5 (4.7) cm
same,"Sidebending to right, Mean (SD) original values","[2]; 1 mo., single 5 mg IV infusion",15.7 (5.9) cm
same,"Intensity of LBP, Mean (SD) original values","[2]; 1 mo., single 5 mg IV infusion",4.3 (2.3)
same,"Fingers-to-floor, Unadjusted analyses Difference (95% CI)",[2]; 12 mos.,7.1 (−4.3 to 18) cm
same,"Intensity of LBP, Unadjusted analyses Difference (95% CI)",[2]; 12 mos.,0.6 (−1.1 to 2.4)
same,"Intensity of leg pain, Unadjusted analyses Difference (95% CI)",[2]; 12 mos.,0.6 (−1.5 to 2.7)
same,"Oswestry disability index, Unadjusted analyses Difference (95% CI)",[2]; 12 mos.,3.1 (−5.6 to 12) %
same,"Sidebending to left, Unadjusted analyses Difference (95% CI)",[2]; 12 mos.,−0.7 (−3.5 to 2.1) cm
same,"Sidebending to right, Unadjusted analyses Difference (95% CI)",[2]; 12 mos.,−1.6 (−4.3 to 1.1) cm
same,"Fingers-to-floor, Adjusted analyses Difference (95% CI)",[2]; 12 mos.,5.3 (−4.5 to 15) cm
same,"Intensity of LBP, Adjusted analyses Difference (95% CI)",[2]; 12 mos.,0.7
same,"Intensity of leg pain, Adjusted analyses Difference (95% CI)",[2]; 12 mos.,0.5 (−1.3 to 2.2)
same,"Oswestry disability index, Adjusted analyses Difference (95% CI)",[2]; 12 mos.,5.1 (−3.4 to 14) %
same,"Sidebending to left, Adjusted analyses Difference (95% CI)",[2]; 12 mos.,−1.0 (−3.8 to 1.8) cm
same,"Sidebending to right, Adjusted analyses Difference (95% CI)",[2]; 12 mos.,−1.7 (−4.2 to 0.8) cm
same,"Intensity of LBP, Adjusted analyses Difference (95% CI)","[2]; 12 mos., listed as ZA",0.7 (−1.0 to 2.4)
same,"Fingers-to-floor, Mean (SD) change",[2]; [3],−6.3 (23) cm
same,"Fingers-to-floor, Mean (SD) original values",[2]; [3],16 (16) cm
same,"Intensity of LBP, Mean (SD) change",[2]; [3],−2.8 (2.9)
same,"Intensity of leg pain, Mean (SD) change",[2]; [3],−0.9 (3.4)
same,"Intensity of leg pain, Mean (SD) original values",[2]; [3],2.1 (2.8)
same,"Oswestry disability index, Mean (SD) change",[2]; [3],−5.0 (15) %
same,"Oswestry disability index, Mean (SD) original values",[2]; [3],25 (13) %
same,"Sidebending to left, Mean (SD) change",[2]; [3],1.2 (5.3) cm
same,"Sidebending to left, Mean (SD) original values",[2]; [3],16.2 (6.7) cm
same,"Sidebending to right, Mean (SD) change",[2]; [3],1.6 (4.8) cm
same,"Sidebending to right, Mean (SD) original values",[2]; [3],15.7 (5.6) cm
same,"Intensity of LBP, Mean (SD) original values",[2]; [3],3.8 (2.5)
same,"Pain Reduction, VAS Change from Baseline","[2]; Baseline VAS < 6, single 5 mg IV infusion",−0.1 cm
same,"Pain Reduction, VAS Change from Baseline","[2]; Baseline VAS ≥ 6 and <7, single 5 mg IV infusion",−2.3 cm
same,"Pain Reduction, VAS Change from Baseline","[2]; Baseline VAS ≥ 7, single 5 mg IV infusion",−3.4 cm
same,mean reduction in pain from baseline,"[2]; baseline pain intensity <6, single 5 mg IV infusion",0.1
same,mean reduction in pain from baseline,"[2]; baseline pain intensity ≥7, single 5 mg IV infusion",3.4
same,proportion of patients reaching patient acceptable symptom state (PASS),[2]; [4],50%
same,proportion of patients with at least 20% improvement in intensity of LBP,[2]; [4],55%
same,patients using NSAIDs,"[2]; one year, single 5 mg IV infusion",20%
